ChEMBL document CHEMBL1201862, “PubChem BioAssay data set” (2004)
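Test compounds were applied to cells in 96-well plates for 48 hours at 5 doses. GI50 = concentration required for 50% inhibition of growth.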 Activity calls are given as the source filed them. No stated cut-off is given here; in the data, active = GI50 up to about 1.1 µM and inactive = higher.

Legend:
Assay in all cases: inhibition of tumour cell growth, NCI panel, 48 h
786-0 = tested on: 786-0
A498 = tested on: A498
A549 = tested on: A549
ACHN = tested on: ACHN
BT-549 = tested on: BT-549
CAKI-1 = tested on: CAKI-1
CCRF-CEM = tested on: CCRF-CEM
COLO 205 = tested on: COLO 205
DU-145 = tested on: DU-145
HCC 2998 = tested on: HCC 2998
HCT-116 = tested on: HCT-116
HCT-15 = tested on: HCT-15
HL-60 = tested on: HL-60
HOP-62 = tested on: HOP-62
HOP-92 = tested on: HOP-92
HT-29 = tested on: HT-29
Hs-578T = tested on: Hs-578T
IGROV-1 = tested on: IGROV-1
K562 = tested on: K562
KM12 = tested on: KM12
LOX IMVI = tested on: LOX IMVI
M14 = tested on: M14
MCF7 = tested on: MCF7
MDA-MB-231 = tested on: MDA-MB-231
MDA-MB-435 = tested on: MDA-MB-435
MDA-N = tested on: MDA-N
MOLT-4 = tested on: MOLT-4
Malme-3M = tested on: Malme-3M
NCI-H226 = tested on: NCI-H226
NCI-H23 = tested on: NCI-H23
NCI-H460 = tested on: NCI-H460
NCI-H522 = tested on: NCI-H522
NCI/ADR-RES = tested on: NCI/ADR-RES
OVCAR-3 = tested on: OVCAR-3
OVCAR-4 = tested on: OVCAR-4
OVCAR-5 = tested on: OVCAR-5
OVCAR-8 = tested on: OVCAR-8
PC-3 = tested on: PC-3
RPMI-8226 = tested on: RPMI-8226
RXF 393 = tested on: RXF 393
SF-268 = tested on: SF-268
SF-295 = tested on: SF-295
SF-539 = tested on: SF-539
SK-MEL-28 = tested on: SK-MEL-28
SK-MEL-5 = tested on: SK-MEL-5
SK-OV-3 = tested on: SK-OV-3
SN12C = tested on: SN12C
SNB-19 = tested on: SNB-19
SNB-75 = tested on: SNB-75
SR = tested on: SR
SW-620 = tested on: SW-620
T47D = tested on: T47D
TK-10 = tested on: TK-10
U-251 = tested on: U-251
UACC-257 = tested on: UACC-257
UACC-62 = tested on: UACC-62
UO-31 = tested on: UO-31
EKVX = tested on: EKVX
SK-MEL-2 = tested on: SK-MEL-2

CN(C)Cc1cc(/N=N/c2cccc(Cl)c2)ccc1O
GI50 (786-0): 13.8 µM (inactive) | GI50 (A498): 10.9 µM (inactive) | GI50 (A549): 15.5 µM (inactive) | GI50 (ACHN): 3.29 µM (inactive) | GI50 (BT-549): 15.9 µM (inactive) | GI50 (CAKI-1): 21.2 µM (inactive) | GI50 (CCRF-CEM): 15.8 µM (inactive) | GI50 (COLO 205): 19.5 µM (inactive) | GI50 (DU-145): 6.9 µM (inactive) | GI50 (HCC 2998): 14.3 µM (inactive) | GI50 (HCT-116): 15.2 µM (inactive) | GI50 (HCT-15): 4.9 µM | GI50 (HL-60): 17.3 µM (inactive) | GI50 (HOP-62): 10.2 µM (inactive) | GI50 (HOP-92): 6.78 µM (inactive) | GI50 (HT-29): 17 µM (inactive) | GI50 (Hs-578T): 11.4 µM (inactive) | GI50 (IGROV-1): 10.9 µM (inactive) | GI50 (K562): 3.27 µM (inactive) | GI50 (KM12): 7.08 µM (inactive) | GI50 (LOX IMVI): 4.16 µM (inactive) | GI50 (M14): 9.66 µM (inactive) | GI50 (MCF7): 14.8 µM (inactive) | GI50 (MDA-MB-231): 9.1 µM (inactive) | GI50 (MDA-MB-435): 4.22 µM (inactive) | GI50 (MDA-N): 10.2 µM (inactive) | GI50 (MOLT-4): 13.2 µM (inactive) | GI50 (Malme-3M): 16.7 µM (inactive) | GI50 (NCI-H226): 17.4 µM (inactive) | GI50 (NCI-H23): 19.9 µM (inactive) | GI50 (NCI-H460): 12.8 µM (inactive) | GI50 (NCI-H522): 11.7 µM (inactive) | GI50 (NCI/ADR-RES): 5.05 µM (inactive) | GI50 (OVCAR-3): 13.6 µM (inactive) | GI50 (OVCAR-4): 9.86 µM (inactive) | GI50 (OVCAR-5): 14.9 µM (inactive) | GI50 (OVCAR-8): 14.9 µM (inactive) | GI50 (PC-3): 16.6 µM (inactive) | GI50 (RPMI-8226): 18.8 µM (inactive) | GI50 (RXF 393): 1.99 µM (inactive) | GI50 (SF-268): 11.6 µM (inactive) | GI50 (SF-295): 14.7 µM (inactive) | GI50 (SF-539): 16 µM (inactive) | GI50 (SK-MEL-28): 13.6 µM (inactive) | GI50 (SK-MEL-5): 3.4 µM (inactive) | GI50 (SK-OV-3): 19.9 µM (inactive) | GI50 (SN12C): 28.6 µM (inactive) | GI50 (SNB-19): 18.8 µM (inactive) | GI50 (SNB-75): 16.1 µM (inactive) | GI50 (SR): 20.1 µM (inactive) | GI50 (SW-620): 10.7 µM (inactive) | GI50 (T47D): 6.7 µM (inactive) | GI50 (TK-10): 10.6 µM (inactive) | GI50 (U-251): 16.9 µM (inactive) | GI50 (UACC-257): 14.5 µM (inactive) | GI50 (UACC-62): 3.61 µM (inactive) | GI50 (UO-31): 8.32 µM (inactive)

O=C1NC(=O)[C@H]2C3C=CC([C@@H]12)[C@@H]1C(=O)NC(=O)[C@H]31
GI50 (786-0): > 100 µM (inactive) | GI50 (A549): > 100 µM (inactive) | GI50 (ACHN): > 100 µM (inactive) | GI50 (BT-549): > 100 µM (inactive) | GI50 (CAKI-1): > 100 µM (inactive) | GI50 (CCRF-CEM): > 100 µM (inactive) | GI50 (COLO 205): > 100 µM (inactive) | GI50 (DU-145): > 100 µM (inactive) | GI50 (EKVX): > 100 µM (inactive) | GI50 (HCC 2998): > 100 µM (inactive) | GI50 (HCT-116): > 100 µM (inactive) | GI50 (HCT-15): > 100 µM | GI50 (HL-60): > 100 µM (inactive) | GI50 (HOP-62): > 100 µM (inactive) | GI50 (HOP-92): > 100 µM (inactive) | GI50 (Hs-578T): > 100 µM (inactive) | GI50 (IGROV-1): > 100 µM (inactive) | GI50 (K562): > 100 µM (inactive) | GI50 (LOX IMVI): > 100 µM (inactive) | GI50 (M14): > 100 µM (inactive) | GI50 (MCF7): 97.1 µM (inactive) | GI50 (MDA-MB-231): > 100 µM (inactive) | GI50 (MDA-MB-435): > 100 µM (inactive) | GI50 (MDA-N): > 100 µM (inactive) | GI50 (MOLT-4): > 100 µM (inactive) | GI50 (Malme-3M): > 100 µM (inactive) | GI50 (NCI-H226): > 100 µM (inactive) | GI50 (NCI-H23): > 100 µM (inactive) | GI50 (NCI-H460): > 100 µM (inactive) | GI50 (NCI-H522): > 100 µM (inactive) | GI50 (NCI/ADR-RES): > 100 µM (inactive) | GI50 (OVCAR-3): > 100 µM (inactive) | GI50 (OVCAR-5): > 100 µM (inactive) | GI50 (OVCAR-8): > 100 µM (inactive) | GI50 (PC-3): > 100 µM (inactive) | GI50 (RPMI-8226): > 100 µM (inactive) | GI50 (RXF 393): > 100 µM (inactive) | GI50 (SF-268): > 100 µM (inactive) | GI50 (SF-295): > 100 µM (inactive) | GI50 (SF-539): > 100 µM (inactive) | GI50 (SK-MEL-28): > 100 µM (inactive) | GI50 (SK-MEL-2): > 100 µM (inactive) | GI50 (SK-MEL-5): > 100 µM (inactive) | GI50 (SN12C): > 100 µM (inactive) | GI50 (SNB-19): > 100 µM (inactive) | GI50 (SR): > 100 µM (inactive) | GI50 (SW-620): > 100 µM (inactive) | GI50 (T47D): > 100 µM (inactive) | GI50 (TK-10): > 100 µM (inactive) | GI50 (U-251): > 100 µM (inactive) | GI50 (UACC-257): > 100 µM (inactive) | GI50 (UACC-62): > 100 µM (inactive) | GI50 (UO-31): > 100 µM (inactive)

COc1cc(/C=C2\N=C(c3ccccc3)N(c3nc4cc(C)c(C)cc4s3)C2=O)ccc1O
GI50 (786-0): 43 µM (inactive) | GI50 (A549): 40.7 µM (inactive) | GI50 (ACHN): 28.3 µM (inactive) | GI50 (BT-549): 46.3 µM (inactive) | GI50 (CAKI-1): 36.6 µM (inactive) | GI50 (CCRF-CEM): 20.5 µM (inactive) | GI50 (COLO 205): 40.1 µM (inactive) | GI50 (DU-145): 61.7 µM (inactive) | GI50 (EKVX): 23.3 µM (inactive) | GI50 (HCC 2998): 27 µM (inactive) | GI50 (HCT-116): 19.3 µM (inactive) | GI50 (HCT-15): 45.6 µM | GI50 (HL-60): 18.7 µM (inactive) | GI50 (HOP-62): 74.1 µM (inactive) | GI50 (HOP-92): 21.9 µM (inactive) | GI50 (HT-29): 31.1 µM (inactive) | GI50 (Hs-578T): 30.8 µM (inactive) | GI50 (IGROV-1): 21.4 µM (inactive) | GI50 (K562): 35.3 µM (inactive) | GI50 (KM12): 17.8 µM (inactive) | GI50 (LOX IMVI): 30.5 µM (inactive) | GI50 (M14): 47.4 µM (inactive) | GI50 (MCF7): 11.2 µM (inactive) | GI50 (MDA-MB-231): 66.1 µM (inactive) | GI50 (MDA-MB-435): 12.6 µM (inactive) | GI50 (MDA-N): 15.2 µM (inactive) | GI50 (MOLT-4): 2.75 µM (inactive) | GI50 (NCI-H460): 27.4 µM (inactive) | GI50 (NCI/ADR-RES): 42.3 µM (inactive) | GI50 (OVCAR-3): 23.7 µM (inactive) | GI50 (OVCAR-4): 20.7 µM (inactive) | GI50 (OVCAR-5): 40.6 µM (inactive) | GI50 (OVCAR-8): 47.4 µM (inactive) | GI50 (PC-3): 30.3 µM (inactive) | GI50 (RPMI-8226): 20.8 µM (inactive) | GI50 (RXF 393): 20.4 µM (inactive) | GI50 (SF-268): 44.8 µM (inactive) | GI50 (SF-295): 66.8 µM (inactive) | GI50 (SF-539): 29.4 µM (inactive) | GI50 (SK-MEL-28): 71.3 µM (inactive) | GI50 (SK-MEL-2): 26.3 µM (inactive) | GI50 (SK-MEL-5): 31.3 µM (inactive) | GI50 (SK-OV-3): > 100 µM (inactive) | GI50 (SN12C): 25.8 µM (inactive) | GI50 (SNB-19): 74 µM (inactive) | GI50 (SNB-75): 24.9 µM (inactive) | GI50 (SR): 19.9 µM (inactive) | GI50 (SW-620): 35.5 µM (inactive) | GI50 (T47D): 44.1 µM (inactive) | GI50 (TK-10): 79.4 µM (inactive) | GI50 (U-251): 30.8 µM (inactive) | GI50 (UACC-257): 21.3 µM (inactive) | GI50 (UACC-62): 26.6 µM (inactive) | GI50 (UO-31): 40.3 µM (inactive)
